Experimental data from EP4119948A1, “METHOD FOR STRATIFICATION AND TREATMENT OF MULTIPLE SCLEROSIS” (Universität Zürich, priority 2021, dated 2023).

What was measured:
[1] = test system: CSF-infiltrating CD4+ T cells; assay: IFN-γ release (ELISA) of PHA-expanded CSF-infiltrating CD4+ T cells stimulated with peptides presented by autologous PBMCs; format: cell-based, human; conditions: peptide 10 µM, 105 MS patients
Description: (§1) PBMCs were freshly isolated using Ficoll (Eurobio, Germany) density gradient centrifugation. CSF-infiltrating CD4^+ T cells were expanded with PHA in a single round of stimulation using a previously reported protocol aimed to reduce TCR repertoire bias (Planas et al., […], Sci Transl Med, 10(462):eaat4301). 6 × 10^4 PHA-expanded CSF-infiltrating CD4^+ T cells were seeded in quadruplicate with 2 × 10^5 irradiated autologous PBMCs as antigen presenting cells and stimulated with peptides (Table 2) at a final concentration of 10 µM and with a T Cell Activation Kit (anti-CD3, anti-CD28, anti-CD2 beads) (Miltenyi Biotec) as positive control. Table 2. GDP-L-FS, myelin and CEF Peptides (amino acid sequences)
Release of IFN-γ was measured using the ELISA MAX™ Deluxe Set Human IFN-γ (Biolegend, San Diego, CA, USA) according to the manufacturer's instructions. A well was considered positive if IFN-γ ≥20 pg/ml and a patient was considered positive for a peptide if the mean IFN-γ of the four wells was ≥ 20 pg/ml and at least 3 of the 4 wells were positive.

[2] = test system: CSF-infiltrating CD4+ T cells; assay: Proliferative response (3H-thymidine, stimulation index) of PHA-expanded CSF-infiltrating CD4+ T cells to peptides presented by autologous PBMCs; format: cell-based, human; conditions: peptide 10 µM, 72 h, 105 MS patients
Description: as §1
Proliferation was measured 72 h after stimulation using 3H-thymidine (Hartmann Analytic, Braunschweig, Germany) as previously reported (Planas et al., 2018). The stimulation index of single wells (SI) was calculated as follows: SI = (cpm well with peptide) / (Mean cpm wells without peptide). A well was considered positive if SI ≥2.

MBP 83-99 (ENPVVHFFKNIVTPRT; listed as Homo sapiens) [MBP (83-99), myelin peptide …]
Positive wells % IFNγ release ([1]; well positive if IFN-γ ≥20 pg/ml, quadruplicates (420 wells per peptide)): 6.28%
Positive patients % IFNγ release ([1]; patient positive if mean IFN-γ of four wells ≥20 pg/ml and at least 3 of 4 wells positive): 5.71%
Positive wells % Proliferation ([2]; well positive if SI ≥2, quadruplicates (420 wells per peptide)): 1.92%
Positive patients % Proliferation ([2]; patient positive if mean SI of four wells ≥2 and at least 3 of four wells SI ≥2): 0.96%
